The source made the active and inactive calls.
Columns and labels:
[1] = microbe, parasite or virus in culture; assay type: functional; details: Mycobacterium tuberculosis
[2] = target: T1, Protein skinhead-1 (Caenorhabditis elegans, UniProt P34707); assay type: functional
T1 sequence (P34707 whole entry): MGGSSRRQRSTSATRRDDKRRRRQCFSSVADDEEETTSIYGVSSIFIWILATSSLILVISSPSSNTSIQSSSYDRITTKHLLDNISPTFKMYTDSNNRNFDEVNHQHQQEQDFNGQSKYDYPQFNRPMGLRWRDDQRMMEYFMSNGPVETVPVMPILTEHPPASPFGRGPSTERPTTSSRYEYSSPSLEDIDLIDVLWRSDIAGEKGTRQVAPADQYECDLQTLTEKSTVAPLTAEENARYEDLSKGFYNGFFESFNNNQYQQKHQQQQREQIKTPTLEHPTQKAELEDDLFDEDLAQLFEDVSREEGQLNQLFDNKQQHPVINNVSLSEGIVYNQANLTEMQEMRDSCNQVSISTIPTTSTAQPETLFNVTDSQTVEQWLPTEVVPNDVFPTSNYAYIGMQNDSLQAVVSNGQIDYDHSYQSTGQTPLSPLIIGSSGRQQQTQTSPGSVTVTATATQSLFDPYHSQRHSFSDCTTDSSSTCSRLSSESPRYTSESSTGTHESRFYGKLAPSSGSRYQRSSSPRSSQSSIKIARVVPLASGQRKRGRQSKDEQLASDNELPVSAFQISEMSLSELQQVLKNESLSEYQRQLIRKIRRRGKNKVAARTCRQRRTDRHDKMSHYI

[3] = system: INS1; test: INS-1E survival protection against cytokine death – cell-based, luminescence, retest, dose response (AID 449756); assay type: functional; details: Rattus norvegicus;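 also: cell death triggered by IL-1 beta plus TNF-alpha plus IFN-gamma mixture; protective hits raise ATP signal compared with cytokine alone wells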
[4] = target: T2, Corticotropin-releasing factor receptor 2/Corticotropin-releasing factor-binding protein (Homo sapiens, UniProt P24387+Q13324); test: Dose Response confirmation of uHTS hits for small molecule antagonists of the CRF-binding protein and CRF-R2 receptor complex.; assay type: functional; details: read-out: IC50_Mean
T2 sequence (Q13324 whole entry): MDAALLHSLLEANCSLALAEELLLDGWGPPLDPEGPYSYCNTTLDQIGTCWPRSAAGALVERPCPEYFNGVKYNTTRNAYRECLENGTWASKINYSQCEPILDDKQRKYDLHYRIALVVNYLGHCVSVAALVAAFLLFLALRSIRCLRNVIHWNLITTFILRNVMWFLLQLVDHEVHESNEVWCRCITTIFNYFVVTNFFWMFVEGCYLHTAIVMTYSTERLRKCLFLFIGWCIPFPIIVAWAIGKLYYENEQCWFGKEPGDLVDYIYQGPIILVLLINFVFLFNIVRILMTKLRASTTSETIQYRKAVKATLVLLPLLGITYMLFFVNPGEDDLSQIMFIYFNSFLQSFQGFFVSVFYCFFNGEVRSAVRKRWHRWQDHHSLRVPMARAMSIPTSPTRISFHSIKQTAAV
T2 sequence (P24387 whole entry): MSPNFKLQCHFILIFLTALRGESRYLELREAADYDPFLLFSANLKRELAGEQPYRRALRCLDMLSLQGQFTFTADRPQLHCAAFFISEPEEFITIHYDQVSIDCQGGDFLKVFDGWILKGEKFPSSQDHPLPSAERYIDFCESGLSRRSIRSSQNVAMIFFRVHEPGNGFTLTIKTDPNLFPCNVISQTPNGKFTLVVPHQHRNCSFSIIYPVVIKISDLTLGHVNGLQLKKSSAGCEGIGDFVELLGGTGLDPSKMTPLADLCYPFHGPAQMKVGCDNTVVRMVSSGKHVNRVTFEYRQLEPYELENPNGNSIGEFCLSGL

[5] = target: T2, Corticotropin-releasing factor receptor 2/Corticotropin-releasing factor-binding protein; test: activators of CRF receptor 2 with binding protein – uHTS hits, confirmation (AID 602473); assay type: functional; details: read-out: EC50_Mean
[6] = target: T3, Fatty acid synthase (Homo sapiens, UniProt P49327); test: inhibition of human FAS-TE enzyme activity – biochemical, endpoint fluorescence intensity, uHTS hits, dose response (AID 624327); assay type: functional;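 also: fluorescence from hydrolysis of an O-methyl fluorescein acyl ester substrate by the enzyme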
T3 sequence (P49327 whole entry): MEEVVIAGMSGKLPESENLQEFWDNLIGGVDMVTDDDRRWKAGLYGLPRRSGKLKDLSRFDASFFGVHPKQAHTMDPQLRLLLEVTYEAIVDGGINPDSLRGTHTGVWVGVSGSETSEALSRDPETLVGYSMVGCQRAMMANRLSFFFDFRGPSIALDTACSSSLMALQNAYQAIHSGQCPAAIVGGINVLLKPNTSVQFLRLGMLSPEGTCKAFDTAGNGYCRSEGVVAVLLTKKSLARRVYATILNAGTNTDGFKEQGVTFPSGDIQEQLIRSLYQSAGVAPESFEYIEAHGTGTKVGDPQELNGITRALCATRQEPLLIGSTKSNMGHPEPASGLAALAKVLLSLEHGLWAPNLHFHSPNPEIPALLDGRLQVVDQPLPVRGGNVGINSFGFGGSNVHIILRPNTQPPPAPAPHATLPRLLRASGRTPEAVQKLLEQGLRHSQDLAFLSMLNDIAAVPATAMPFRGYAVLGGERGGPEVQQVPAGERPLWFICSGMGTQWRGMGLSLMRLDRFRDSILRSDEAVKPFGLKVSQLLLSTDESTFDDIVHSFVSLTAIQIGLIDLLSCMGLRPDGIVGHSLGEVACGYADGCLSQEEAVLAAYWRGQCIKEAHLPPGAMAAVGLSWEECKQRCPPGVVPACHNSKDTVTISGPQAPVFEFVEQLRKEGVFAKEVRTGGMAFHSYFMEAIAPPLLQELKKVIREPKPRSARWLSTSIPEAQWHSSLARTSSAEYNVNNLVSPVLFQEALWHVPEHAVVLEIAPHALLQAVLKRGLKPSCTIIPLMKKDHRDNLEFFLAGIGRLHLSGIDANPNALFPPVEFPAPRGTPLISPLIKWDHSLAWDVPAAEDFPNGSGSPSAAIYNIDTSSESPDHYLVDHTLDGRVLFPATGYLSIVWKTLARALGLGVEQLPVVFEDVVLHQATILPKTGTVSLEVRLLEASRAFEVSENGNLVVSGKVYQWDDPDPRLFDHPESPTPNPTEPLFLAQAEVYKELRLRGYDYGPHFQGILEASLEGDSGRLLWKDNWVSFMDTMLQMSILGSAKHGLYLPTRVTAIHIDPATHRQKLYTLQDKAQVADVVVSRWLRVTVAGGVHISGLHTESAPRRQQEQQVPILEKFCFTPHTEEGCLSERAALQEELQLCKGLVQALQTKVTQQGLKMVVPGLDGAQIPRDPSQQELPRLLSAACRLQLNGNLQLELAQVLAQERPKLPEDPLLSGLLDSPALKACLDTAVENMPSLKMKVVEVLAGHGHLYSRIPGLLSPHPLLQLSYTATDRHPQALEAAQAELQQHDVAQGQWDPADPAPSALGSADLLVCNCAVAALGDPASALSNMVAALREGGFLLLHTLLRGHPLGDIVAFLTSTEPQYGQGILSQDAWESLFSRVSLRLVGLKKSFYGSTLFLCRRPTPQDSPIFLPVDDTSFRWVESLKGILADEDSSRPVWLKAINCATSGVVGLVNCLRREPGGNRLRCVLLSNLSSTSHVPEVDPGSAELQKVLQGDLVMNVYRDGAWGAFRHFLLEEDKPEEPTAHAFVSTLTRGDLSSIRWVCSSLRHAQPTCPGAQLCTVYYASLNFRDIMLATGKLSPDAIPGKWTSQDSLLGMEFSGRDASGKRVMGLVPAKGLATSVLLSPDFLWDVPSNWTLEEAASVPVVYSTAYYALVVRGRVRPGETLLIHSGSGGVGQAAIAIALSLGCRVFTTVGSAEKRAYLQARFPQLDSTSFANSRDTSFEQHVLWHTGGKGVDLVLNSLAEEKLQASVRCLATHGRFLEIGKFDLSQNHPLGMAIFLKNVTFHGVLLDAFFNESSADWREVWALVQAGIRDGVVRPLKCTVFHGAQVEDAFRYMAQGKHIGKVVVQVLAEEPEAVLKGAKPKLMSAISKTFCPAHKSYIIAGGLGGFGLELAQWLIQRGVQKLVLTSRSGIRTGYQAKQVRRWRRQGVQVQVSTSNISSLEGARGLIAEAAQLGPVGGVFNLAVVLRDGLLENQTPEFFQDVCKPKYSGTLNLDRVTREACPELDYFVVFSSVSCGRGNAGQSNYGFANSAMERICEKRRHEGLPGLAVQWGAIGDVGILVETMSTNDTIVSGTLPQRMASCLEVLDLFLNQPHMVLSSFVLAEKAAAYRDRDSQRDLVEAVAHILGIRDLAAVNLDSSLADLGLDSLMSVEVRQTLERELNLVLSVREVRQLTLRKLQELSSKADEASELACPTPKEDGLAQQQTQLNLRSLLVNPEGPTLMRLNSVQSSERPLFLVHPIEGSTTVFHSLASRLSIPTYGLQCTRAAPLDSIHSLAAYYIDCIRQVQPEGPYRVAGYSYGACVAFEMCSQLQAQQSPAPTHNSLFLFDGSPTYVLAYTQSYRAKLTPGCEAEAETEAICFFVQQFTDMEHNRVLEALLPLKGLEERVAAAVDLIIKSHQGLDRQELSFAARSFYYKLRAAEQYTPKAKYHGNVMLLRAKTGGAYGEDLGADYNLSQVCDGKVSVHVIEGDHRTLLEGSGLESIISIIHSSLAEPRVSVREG

[7] = target: T3, Fatty acid synthase; test: inhibition of human FAS-TE enzyme activity – biochemical, kinetic fluorescence intensity, dose response (AID 624326); assay type: functional;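 also: rate of fluorescence rise from hydrolysis of a fluorogenic O-methyl fluorescein ester substrate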
[8] = target: T4, Calpain-2 catalytic subunit (Sus scrofa, UniProt P43367); test: m-calpain protease blockers, concentration series – biochemical, fluorogenic peptide substrate, dose response (AID 1420); assay type: functional
T4 sequence (P43367 whole entry): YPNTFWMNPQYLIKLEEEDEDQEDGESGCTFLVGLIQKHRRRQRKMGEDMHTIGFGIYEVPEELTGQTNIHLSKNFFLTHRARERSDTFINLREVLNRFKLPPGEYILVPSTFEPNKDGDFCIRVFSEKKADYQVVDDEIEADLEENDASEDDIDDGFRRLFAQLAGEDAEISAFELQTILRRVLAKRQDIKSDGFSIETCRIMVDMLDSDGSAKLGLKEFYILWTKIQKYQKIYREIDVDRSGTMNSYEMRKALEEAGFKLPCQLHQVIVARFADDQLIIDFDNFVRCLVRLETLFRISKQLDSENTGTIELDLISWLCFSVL

[9] = target: T5, Polyadenylate-binding protein 1 (Homo sapiens, UniProt P11940); test: MLLE binding blockers, Cy5 peptide tracer – biochemical, fluorescence polarization, Cy5-PAM2 peptide, secondary, miRNA deadenylation inhibitor project, dose response (AID 602260); assay type: functional; details: read-out: IC50_Mean
T5 sequence (P11940 whole entry, the tested form may be a part): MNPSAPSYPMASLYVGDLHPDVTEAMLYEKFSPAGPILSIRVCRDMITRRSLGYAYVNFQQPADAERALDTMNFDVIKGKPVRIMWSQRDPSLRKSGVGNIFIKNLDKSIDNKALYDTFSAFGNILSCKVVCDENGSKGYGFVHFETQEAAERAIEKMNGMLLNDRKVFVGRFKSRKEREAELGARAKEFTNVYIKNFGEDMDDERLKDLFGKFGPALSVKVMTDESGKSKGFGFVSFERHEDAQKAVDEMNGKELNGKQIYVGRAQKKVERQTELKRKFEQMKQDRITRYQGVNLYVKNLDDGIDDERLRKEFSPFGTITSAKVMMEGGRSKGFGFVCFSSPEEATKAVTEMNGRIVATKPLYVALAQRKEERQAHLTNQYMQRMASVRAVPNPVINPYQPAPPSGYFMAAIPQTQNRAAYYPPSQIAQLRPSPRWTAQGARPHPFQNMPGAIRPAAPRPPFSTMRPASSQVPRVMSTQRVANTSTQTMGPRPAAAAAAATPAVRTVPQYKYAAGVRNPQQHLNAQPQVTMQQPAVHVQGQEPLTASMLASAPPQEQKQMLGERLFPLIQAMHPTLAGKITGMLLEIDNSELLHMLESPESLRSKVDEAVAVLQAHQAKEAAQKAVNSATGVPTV

[10] = target: T5, Polyadenylate-binding protein 1; test: MLLE domain peptide-binding blockers, IC50 – biochemical, fluorescence polarization, FITC-PAM2 peptide, dose response (AID 602259); assay type: functional; details: read-out: IC50_Mean
[11] = HIV-1 AD8 envelope cell-cell fusion blockers – cherry-pick, dose response (AID 652062); assay type: functional, cell-based;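 also: luciferase signal from cell-cell fusion driven by HIV-1 clade B AD8 Env; potency is for inhibitors of fusion seen as a drop in luminescence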
[12] = system: Streptococcus sp. 'group A'; test: Streptococcus pyogenes SK(-)GAS viability under kanamycin – luminescence, BacTiterGlo, confirmation, counter-screen for streptokinase expression inhibitor project, dose response (AID 1900); assay type: functional, organism-based
[13] = target: T6, Streptokinase A (Streptococcus pyogenes serotype M1, UniProt P10520); test: viability-normalized secreted streptokinase activity reduction – plasminogen activation absorbance, OD405, dose response (AID 1914); assay type: functional, Streptococcus pyogenes M1 GAS;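 also: secreted streptokinase activity via plasminogen activation per viability signal from cell pellet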
T6 sequence (P10520 whole entry): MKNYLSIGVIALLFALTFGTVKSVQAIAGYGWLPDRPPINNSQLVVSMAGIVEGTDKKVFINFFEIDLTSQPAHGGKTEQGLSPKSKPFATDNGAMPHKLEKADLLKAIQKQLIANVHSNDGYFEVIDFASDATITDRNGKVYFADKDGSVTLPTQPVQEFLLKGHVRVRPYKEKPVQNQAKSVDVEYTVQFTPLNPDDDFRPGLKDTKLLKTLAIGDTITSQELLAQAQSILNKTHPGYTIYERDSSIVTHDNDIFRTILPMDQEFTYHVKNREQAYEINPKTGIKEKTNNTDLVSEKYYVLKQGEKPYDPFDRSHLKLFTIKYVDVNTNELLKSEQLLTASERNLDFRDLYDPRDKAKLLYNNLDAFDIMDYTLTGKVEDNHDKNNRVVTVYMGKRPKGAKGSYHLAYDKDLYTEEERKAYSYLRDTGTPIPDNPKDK

[14] = system: Streptococcus; test: GAS UMAA2166 growth inhibition – luminescence, BacTiterGlo, counter-screen for streptokinase expression inhibitor project, dose response (AID 1915); assay type: functional, organism-based;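 also: potency for reduction of bacterial viability or growth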

O=C1C=C(c2ccc3[nH]ccc3c2)C[C@@H](c2ccc(Cl)cc2)C1
CC50 [1]: > 40 µM (active)

CCCCCOc1ccc(NC2=CC(=O)CCC2)cc1
CC50 [1]: > 40 µM (active)

COc1ccc(-n2c(C)nc3cc(C(=O)NCc4ccco4)ccc32)cc1
IC50 [2]: > 100 µM (inactive)

CC(=O)Cc1cc(O)c2ccccc2c1OC(=O)c1ccc(Br)cc1
AC50 [3]: 14.9 µM (active)
IC50 [4]: > 47.1 µM (inactive)
EC50 [5]: > 53 µM (inactive)

COc1cccc(NC(=O)C(C)Oc2ccccc2)c1 (configuration not stated)
IC50 [2]: > 100 µM (inactive)

CCOC(=O)C1CCN(C(=O)COC(=O)c2cc([N+](=O)[O-])ccc2N2CCOCC2)CC1
IC50 [6]: 4.15 µM (active)
IC50 [7]: 7.1 µM (active)

COc1ccccc1CN(C)CC(=O)Nc1ccc(Cl)cc1F
IC50 [8]: > 50 µM (not active)

O=C(CCc1ccccc1)NC1CCSC1=O (configuration not stated)
IC50 [2]: > 100 µM (inactive)

COc1ccccc1S(=O)(=O)N1CCn2cccc2C1C (configuration not stated)
IC50 [4]: > 47.1 µM (inactive)
EC50 [5]: > 53 µM (inactive)

CCN(CC)S(=O)(=O)c1ccc2c(c1)nc(SC(C)C(N)=O)n2-c1ccc(OC)cc1 (configuration not stated)
IC50 [2]: > 100 µM (inactive)

CCN(CC)C(=O)CSc1nnc2nnc3cc(C)ccc3n12
IC50 [9]: > 66 µM (inactive)
IC50 [10]: 49.8 µM (inactive)

Cc1nc(NC(=S)NC(=O)c2ccco2)sc1C(=O)N(C)C
IC50 [9]: > 66 µM (inactive)
IC50 [10]: > 66 µM (inactive)

Clc1ccc(-c2nnc(-c3ccccc3)o2)c(Cl)c1
IC50 [2]: 51.6 µM (inactive)

Cc1ccc(C(=O)NC(=S)Nc2ccc3[nH]c(O)nc3c2)c(C)c1
IC50 [9]: > 66 µM (inactive)
IC50 [10]: > 66 µM (inactive)

Cn1cccc1Cc1nnc(SCC(=O)N2CCN(c3ccccc3)CC2)n1-c1ccc(F)cc1
IC50 [4]: > 47.1 µM (inactive)
EC50 [5]: > 53 µM (inactive)

O=C(NCCc1nnc2ccc(NCc3ccc(Cl)cc3)nn12)c1ccccc1
IC50 [8]: 6.17 µM (not active)

CCc1ccc(S(=O)(=O)c2nnn3c2nc(N2CCOCC2)c2ccccc23)cc1
IC50 [6]: 14.3 µM (active)
IC50 [7]: 6.03 µM (active)

O=C(NC(=S)NCCO)c1cn(-c2ccccc2)nc1-c1ccccc1
IC50 [9]: > 66 µM (inactive)
IC50 [10]: > 66 µM (inactive)

O=S(=O)(Oc1ccccc1C(=S)N1CCOCC1)c1ccc(Cl)cc1
IC50 [9]: > 66 µM (inactive)
IC50 [10]: > 66 µM (inactive)

O=S(=O)(c1cccs1)N1CCN(Cc2nc(O)c3cc(Br)cc(Br)c3n2)CC1
IC50 [6]: 12.5 µM (active)
IC50 [7]: 9.03 µM (active)

Cn1nc(C(C)(C)C)cc1NC(=O)Nc1cc(Cl)cc(Cl)c1
CC50 [1]: 11.3 µM (active)

O=C(/C=C/c1cc([N+](=O)[O-])ccc1OC(F)F)NCc1ccc(Cl)cc1
IC50 [6]: 0.351 µM (active)
IC50 [7]: 0.413 µM (active)

COc1ccc(NS(=O)(=O)c2ccc3c(c2)OCCO3)cc1OC
AC50 [11]: 7.24 µM (active)

COc1ccc(CNC(C)C2COc3ccccc3O2)c(OC)c1 (configuration not stated)
IC50 [2]: > 100 µM (inactive)

CC1=CC2=NC(=O)/C(=C\c3cccn3CCOc3cc(C)cc(C)c3)C(=N)N2O1
IC50 [8]: 0.668 µM (not active)

N#Cc1ccc(CSc2ccc(S(=O)(=O)N3CCCC3)cn2)cc1
IC50 [6]: 8.8 µM (active)
IC50 [7]: 6.67 µM (active)

COc1ccc(N=C(S)NC(NC(=O)c2ccc(Cl)cc2Cl)C(Cl)(Cl)Cl)c([N+](=O)[O-])c1 (configuration not stated)
EC50 [12]: 1.22 µM (active)
EC50 [13]: 20.9 µM (active)
EC50 [14]: > 150 µM (not active)
IC50 [9]: > 66 µM (inactive)
IC50 [10]: > 66 µM (inactive)

Cc1c(OCC(=O)NCCN2CCOCC2)ccc2c3c(c(=O)oc12)CCC3
IC50 [4]: > 47.1 µM (inactive)
EC50 [5]: > 53 µM (inactive)

Cn1nc(C(=O)O)c(=O)n(C)c1=O
IC50 [9]: > 66 µM (inactive)
IC50 [10]: > 66 µM (inactive)

O=C(NCC(=O)N1CCOCC1)c1ccc(Cl)c(Cl)c1
IC50 [2]: > 100 µM (inactive)

Cc1nnc(NC(=O)CSc2nnc(Cc3ccccc3)n2-c2ccccc2)s1
IC50 [4]: > 47.1 µM (inactive)
EC50 [5]: > 53 µM (inactive)

Cc1ccc(-n2ccnc(SCC(=O)NC3CCCCC3)c2=O)cc1F
IC50 [9]: > 66 µM (inactive)
IC50 [10]: > 66 µM (inactive)

Cc1c(C)n(C)c2ccc(C(=O)NCCCN(C)C3CCCCC3)cc12
IC50 [2]: > 100 µM (inactive)

CCCCCC(=O)OCc1ccc(C2=CC(=O)CC(C)(C)C2=O)cc1
IC50 [6]: 7.22 µM (active)
IC50 [7]: 6.78 µM (active)

COc1cccc(NC(=O)COc2c(F)c(F)c(C(F)(F)F)c(F)c2F)c1
IC50 [6]: 12.2 µM (active)
IC50 [7]: 10.5 µM (active)

COCC(=O)Nc1ccc2c(c1)C(=O)N(C)C[C@@H](OC)[C@@H](C)CN(C)[C@H](C)CO2
AC50 [11]: 14.8 µM (active)

O=C(CN(c1ccc(Cl)cc1)S(=O)(=O)c1ccccc1)N/N=C/c1ccco1
IC50 [6]: 10.8 µM (active)
IC50 [7]: 6.94 µM (active)

From ChEMBL document CHEMBL1201862, “PubChem BioAssay data set” (2004)
